How the values were obtained:
Conditions in all cases: Compound concentration 10 µM
[1] = molecular target: T1, Alpha-2A adrenergic receptor (Homo sapiens) (UniProt P08913)
T1 sequence (whole entry): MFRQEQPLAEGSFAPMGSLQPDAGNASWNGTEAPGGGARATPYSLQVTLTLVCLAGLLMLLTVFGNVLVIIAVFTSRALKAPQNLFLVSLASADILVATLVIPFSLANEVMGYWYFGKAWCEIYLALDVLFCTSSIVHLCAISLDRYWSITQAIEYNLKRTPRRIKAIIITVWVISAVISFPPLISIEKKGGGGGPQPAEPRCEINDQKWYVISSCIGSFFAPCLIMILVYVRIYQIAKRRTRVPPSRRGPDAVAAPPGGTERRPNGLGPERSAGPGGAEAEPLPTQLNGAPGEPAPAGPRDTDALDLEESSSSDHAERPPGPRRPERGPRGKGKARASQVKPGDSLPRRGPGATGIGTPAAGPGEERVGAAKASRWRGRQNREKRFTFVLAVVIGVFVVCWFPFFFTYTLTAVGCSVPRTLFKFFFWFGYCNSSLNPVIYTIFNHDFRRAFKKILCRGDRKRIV

[2] = molecular target: T2, Alpha-2C adrenergic receptor (Homo sapiens) (UniProt P18825)
T2 sequence (whole entry): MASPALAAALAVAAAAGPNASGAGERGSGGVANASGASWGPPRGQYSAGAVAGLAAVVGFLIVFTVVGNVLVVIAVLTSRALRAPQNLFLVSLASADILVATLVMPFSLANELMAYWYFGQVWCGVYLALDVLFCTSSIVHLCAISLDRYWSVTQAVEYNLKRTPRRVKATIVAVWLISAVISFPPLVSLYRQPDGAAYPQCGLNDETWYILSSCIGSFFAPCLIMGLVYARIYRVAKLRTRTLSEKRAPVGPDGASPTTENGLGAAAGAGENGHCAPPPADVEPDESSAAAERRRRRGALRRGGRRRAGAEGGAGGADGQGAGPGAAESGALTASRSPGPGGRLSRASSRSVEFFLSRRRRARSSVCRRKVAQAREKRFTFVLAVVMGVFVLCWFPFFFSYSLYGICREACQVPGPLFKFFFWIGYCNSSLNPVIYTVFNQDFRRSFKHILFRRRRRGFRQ

[3] = molecular target: Beta-2 adrenergic receptor (Homo sapiens) (UniProt P07550)
[4] = molecular target: D(2) dopamine receptor (Homo sapiens) (UniProt P14416)
Chain of D(2) dopamine receptor (Homo sapiens) (P14416 whole entry): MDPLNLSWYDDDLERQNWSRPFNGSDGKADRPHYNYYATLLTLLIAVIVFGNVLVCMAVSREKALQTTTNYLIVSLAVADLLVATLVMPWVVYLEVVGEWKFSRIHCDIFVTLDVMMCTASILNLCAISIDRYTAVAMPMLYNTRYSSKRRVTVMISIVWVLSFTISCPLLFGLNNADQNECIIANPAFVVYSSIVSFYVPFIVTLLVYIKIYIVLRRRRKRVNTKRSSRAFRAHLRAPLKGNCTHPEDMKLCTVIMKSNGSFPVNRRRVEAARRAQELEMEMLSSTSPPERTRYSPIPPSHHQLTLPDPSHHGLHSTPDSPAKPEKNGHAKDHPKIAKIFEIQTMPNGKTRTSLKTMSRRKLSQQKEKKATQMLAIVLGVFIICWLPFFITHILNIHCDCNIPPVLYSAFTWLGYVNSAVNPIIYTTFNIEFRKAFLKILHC

[5] = molecular target: D(3) dopamine receptor (Homo sapiens) (UniProt P35462)
Chain of D(3) dopamine receptor (Homo sapiens) (P35462 whole entry): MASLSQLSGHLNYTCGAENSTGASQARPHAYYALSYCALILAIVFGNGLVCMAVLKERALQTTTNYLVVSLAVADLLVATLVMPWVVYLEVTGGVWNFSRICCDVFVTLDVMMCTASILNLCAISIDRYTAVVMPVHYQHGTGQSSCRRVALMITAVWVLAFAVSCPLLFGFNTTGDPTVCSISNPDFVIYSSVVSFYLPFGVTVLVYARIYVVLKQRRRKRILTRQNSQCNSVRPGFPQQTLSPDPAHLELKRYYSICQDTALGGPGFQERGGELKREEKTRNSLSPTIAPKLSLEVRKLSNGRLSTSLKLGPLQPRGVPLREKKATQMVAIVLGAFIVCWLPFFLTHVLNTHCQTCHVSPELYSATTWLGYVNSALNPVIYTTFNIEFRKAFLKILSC

[6] = molecular target: D(1B) dopamine receptor (Homo sapiens) (UniProt P21918)
Chain of D(1B) dopamine receptor (Homo sapiens) (P21918 whole entry): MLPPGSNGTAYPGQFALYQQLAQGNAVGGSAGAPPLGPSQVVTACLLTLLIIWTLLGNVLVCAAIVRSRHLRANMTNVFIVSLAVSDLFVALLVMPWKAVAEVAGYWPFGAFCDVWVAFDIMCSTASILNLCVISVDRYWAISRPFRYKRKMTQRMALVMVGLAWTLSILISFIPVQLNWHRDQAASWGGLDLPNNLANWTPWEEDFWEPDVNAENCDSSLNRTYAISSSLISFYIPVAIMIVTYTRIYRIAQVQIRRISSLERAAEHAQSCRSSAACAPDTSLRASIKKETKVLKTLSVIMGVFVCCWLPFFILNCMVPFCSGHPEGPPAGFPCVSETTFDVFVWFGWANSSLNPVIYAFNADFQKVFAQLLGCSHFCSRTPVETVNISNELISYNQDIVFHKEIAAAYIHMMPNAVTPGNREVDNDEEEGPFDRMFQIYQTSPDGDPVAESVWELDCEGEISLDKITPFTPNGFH

[7] = molecular target: Histamine H4 receptor (Homo sapiens) (UniProt Q9H3N8)
Chain of Histamine H4 receptor (Homo sapiens) (Q9H3N8 whole entry): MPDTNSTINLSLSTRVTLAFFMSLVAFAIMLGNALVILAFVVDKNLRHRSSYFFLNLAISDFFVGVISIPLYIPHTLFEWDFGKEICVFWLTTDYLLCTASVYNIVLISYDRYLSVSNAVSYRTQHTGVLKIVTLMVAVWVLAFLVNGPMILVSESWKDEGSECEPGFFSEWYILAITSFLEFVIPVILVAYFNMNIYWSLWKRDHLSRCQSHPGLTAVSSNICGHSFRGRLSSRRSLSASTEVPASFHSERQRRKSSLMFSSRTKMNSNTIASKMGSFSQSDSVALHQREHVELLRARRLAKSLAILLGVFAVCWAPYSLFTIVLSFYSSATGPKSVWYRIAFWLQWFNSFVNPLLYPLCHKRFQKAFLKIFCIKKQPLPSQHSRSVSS

[8] = molecular target: T3, 5-hydroxytryptamine receptor 1A (Homo sapiens) (UniProt P08908)
T3 sequence (whole entry): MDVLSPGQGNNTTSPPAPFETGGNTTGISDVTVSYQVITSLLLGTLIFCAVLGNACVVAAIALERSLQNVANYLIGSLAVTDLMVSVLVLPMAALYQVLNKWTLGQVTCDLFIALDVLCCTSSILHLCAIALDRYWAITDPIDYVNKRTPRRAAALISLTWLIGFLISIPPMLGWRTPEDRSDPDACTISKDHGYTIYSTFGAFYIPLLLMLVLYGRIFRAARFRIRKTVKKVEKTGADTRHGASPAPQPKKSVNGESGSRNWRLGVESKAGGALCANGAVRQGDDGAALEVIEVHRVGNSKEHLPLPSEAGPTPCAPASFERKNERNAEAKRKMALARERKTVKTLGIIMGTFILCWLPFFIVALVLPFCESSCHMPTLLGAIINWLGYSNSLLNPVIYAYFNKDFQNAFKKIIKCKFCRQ

[9] = molecular target: 5-hydroxytryptamine receptor 1B (Homo sapiens) (UniProt P28222)
Chain of 5-hydroxytryptamine receptor 1B (Homo sapiens) (P28222 whole entry): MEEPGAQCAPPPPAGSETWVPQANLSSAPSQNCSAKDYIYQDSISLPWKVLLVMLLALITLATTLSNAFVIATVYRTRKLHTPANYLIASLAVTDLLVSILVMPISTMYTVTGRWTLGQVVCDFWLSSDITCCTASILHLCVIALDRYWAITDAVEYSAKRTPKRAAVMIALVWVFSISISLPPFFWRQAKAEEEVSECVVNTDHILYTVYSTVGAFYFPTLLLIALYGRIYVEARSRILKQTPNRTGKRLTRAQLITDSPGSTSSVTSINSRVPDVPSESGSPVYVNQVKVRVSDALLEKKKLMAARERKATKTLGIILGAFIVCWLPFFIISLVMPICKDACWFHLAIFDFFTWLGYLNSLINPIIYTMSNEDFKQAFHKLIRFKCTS

[10] = molecular target: 5-hydroxytryptamine receptor 1D (Homo sapiens) (UniProt P28221)
Chain of 5-hydroxytryptamine receptor 1D (Homo sapiens) (P28221 whole entry): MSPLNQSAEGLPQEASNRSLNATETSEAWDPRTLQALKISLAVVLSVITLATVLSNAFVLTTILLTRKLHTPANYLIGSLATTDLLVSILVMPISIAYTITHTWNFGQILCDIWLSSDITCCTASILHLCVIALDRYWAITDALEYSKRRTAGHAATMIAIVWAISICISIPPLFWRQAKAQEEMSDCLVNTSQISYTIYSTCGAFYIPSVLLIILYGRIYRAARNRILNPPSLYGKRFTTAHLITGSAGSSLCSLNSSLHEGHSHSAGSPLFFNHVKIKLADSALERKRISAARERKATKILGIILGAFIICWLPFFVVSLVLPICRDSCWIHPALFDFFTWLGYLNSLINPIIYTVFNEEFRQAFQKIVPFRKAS

[11] = molecular target: 5-hydroxytryptamine receptor 6 (Homo sapiens) (UniProt P50406)
Chain of 5-hydroxytryptamine receptor 6 (Homo sapiens) (P50406 whole entry): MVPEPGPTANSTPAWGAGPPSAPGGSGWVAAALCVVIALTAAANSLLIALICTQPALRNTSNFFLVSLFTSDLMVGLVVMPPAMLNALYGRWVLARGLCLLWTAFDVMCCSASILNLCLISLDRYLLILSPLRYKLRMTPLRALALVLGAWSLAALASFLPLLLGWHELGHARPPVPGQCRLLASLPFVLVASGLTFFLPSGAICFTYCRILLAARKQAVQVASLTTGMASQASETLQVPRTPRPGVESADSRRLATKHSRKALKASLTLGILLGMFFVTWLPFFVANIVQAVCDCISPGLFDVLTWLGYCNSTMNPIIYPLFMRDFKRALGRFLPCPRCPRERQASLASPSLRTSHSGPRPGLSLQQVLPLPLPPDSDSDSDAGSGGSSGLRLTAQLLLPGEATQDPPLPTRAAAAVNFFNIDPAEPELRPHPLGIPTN

[12] = molecular target: 5-hydroxytryptamine receptor 7 (Homo sapiens) (UniProt P34969)
Chain of 5-hydroxytryptamine receptor 7 (Homo sapiens) (P34969 whole entry): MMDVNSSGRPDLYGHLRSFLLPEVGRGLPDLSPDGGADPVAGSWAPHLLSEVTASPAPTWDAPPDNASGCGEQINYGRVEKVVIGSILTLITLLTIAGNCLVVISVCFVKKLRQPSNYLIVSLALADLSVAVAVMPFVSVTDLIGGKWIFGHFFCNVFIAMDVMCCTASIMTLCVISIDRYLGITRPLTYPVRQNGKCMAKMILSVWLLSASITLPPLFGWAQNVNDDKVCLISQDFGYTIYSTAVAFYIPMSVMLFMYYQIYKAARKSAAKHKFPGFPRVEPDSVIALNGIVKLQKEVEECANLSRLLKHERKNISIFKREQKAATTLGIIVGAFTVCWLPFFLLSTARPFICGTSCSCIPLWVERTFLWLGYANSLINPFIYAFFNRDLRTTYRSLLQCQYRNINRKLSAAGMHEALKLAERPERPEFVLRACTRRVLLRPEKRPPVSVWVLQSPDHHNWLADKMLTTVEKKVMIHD

[13] = molecular target: Delta-type opioid receptor (Homo sapiens) (UniProt P41143)
Chain of Delta-type opioid receptor (Homo sapiens) (P41143 whole entry): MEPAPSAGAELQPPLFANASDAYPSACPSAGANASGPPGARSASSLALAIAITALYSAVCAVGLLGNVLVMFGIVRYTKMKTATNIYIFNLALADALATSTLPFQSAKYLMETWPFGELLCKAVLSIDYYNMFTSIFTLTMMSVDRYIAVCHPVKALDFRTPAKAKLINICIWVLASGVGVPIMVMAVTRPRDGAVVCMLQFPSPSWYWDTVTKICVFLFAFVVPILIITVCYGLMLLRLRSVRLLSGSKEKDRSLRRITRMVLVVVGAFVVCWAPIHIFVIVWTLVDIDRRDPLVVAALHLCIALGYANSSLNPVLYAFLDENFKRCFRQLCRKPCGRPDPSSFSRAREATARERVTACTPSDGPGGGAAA

[14] = molecular target: Sodium-dependent noradrenaline transporter (Homo sapiens) (UniProt P23975)
Chain of Sodium-dependent noradrenaline transporter (Homo sapiens) (P23975 whole entry): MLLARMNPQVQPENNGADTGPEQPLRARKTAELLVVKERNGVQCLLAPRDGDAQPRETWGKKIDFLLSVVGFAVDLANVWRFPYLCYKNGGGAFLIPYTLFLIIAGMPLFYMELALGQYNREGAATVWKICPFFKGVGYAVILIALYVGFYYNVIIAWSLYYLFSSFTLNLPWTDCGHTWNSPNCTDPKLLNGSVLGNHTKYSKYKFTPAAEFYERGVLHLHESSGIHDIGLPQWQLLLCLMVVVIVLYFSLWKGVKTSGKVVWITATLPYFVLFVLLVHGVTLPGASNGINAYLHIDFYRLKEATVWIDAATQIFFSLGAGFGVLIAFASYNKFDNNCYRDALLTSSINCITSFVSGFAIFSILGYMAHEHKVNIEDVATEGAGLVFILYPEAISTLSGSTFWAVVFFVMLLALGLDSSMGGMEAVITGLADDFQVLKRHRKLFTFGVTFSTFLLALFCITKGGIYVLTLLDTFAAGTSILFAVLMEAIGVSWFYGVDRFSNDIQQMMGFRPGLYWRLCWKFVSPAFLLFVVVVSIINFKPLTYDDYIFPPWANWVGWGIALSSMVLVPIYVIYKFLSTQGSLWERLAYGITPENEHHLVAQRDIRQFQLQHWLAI

[15] = molecular target: Sigma intracellular receptor 2 (Homo sapiens) (UniProt Q5BJF2)
Chain of Sigma intracellular receptor 2 (Homo sapiens) (Q5BJF2 whole entry): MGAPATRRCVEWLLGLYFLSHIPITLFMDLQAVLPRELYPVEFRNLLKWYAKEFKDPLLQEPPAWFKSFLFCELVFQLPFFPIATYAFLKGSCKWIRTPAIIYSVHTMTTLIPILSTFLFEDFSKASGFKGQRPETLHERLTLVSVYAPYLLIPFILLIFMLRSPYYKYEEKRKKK

[16] = molecular target: Translocator protein (Homo sapiens) (UniProt P30536)
Chain of Translocator protein (Homo sapiens) (P30536 whole entry): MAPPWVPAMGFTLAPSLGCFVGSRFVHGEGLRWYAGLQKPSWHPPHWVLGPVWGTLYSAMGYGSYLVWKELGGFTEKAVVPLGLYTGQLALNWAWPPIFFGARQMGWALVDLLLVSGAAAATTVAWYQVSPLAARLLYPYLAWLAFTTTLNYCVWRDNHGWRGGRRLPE

[17] = molecular target: D(1A) dopamine receptor (Homo sapiens) (UniProt P21728)
[18] = molecular target: 5-hydroxytryptamine receptor 1E (Homo sapiens) (UniProt P28566)
[19] = molecular target: 5-hydroxytryptamine receptor 2A (Homo sapiens) (UniProt P28223)
[20] = molecular target: T4, Muscarinic acetylcholine receptor M5 (Homo sapiens) (UniProt P08912)
T4 sequence (whole entry): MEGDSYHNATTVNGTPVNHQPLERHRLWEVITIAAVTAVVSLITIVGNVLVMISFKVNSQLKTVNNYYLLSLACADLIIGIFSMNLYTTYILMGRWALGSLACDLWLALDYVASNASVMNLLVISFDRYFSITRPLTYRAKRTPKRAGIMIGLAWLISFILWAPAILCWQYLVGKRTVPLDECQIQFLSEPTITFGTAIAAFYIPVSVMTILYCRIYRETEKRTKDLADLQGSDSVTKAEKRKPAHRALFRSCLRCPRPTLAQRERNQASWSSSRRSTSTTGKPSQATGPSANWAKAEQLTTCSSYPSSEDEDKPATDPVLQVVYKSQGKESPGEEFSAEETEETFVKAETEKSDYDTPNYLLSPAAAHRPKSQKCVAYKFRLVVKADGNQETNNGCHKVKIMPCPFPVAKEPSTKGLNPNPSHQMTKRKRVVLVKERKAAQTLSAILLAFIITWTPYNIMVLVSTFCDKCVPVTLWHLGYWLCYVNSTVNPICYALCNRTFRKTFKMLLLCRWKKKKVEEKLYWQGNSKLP

| Structure (SMILES) | inhibition [1] | inhibition [2] | inhibition [3] | inhibition [4] | inhibition [5] | inhibition [6] | inhibition [7] | inhibition [8] | inhibition [9] | inhibition [10] | inhibition [11] | inhibition [12] | inhibition [13] | inhibition [14] | inhibition [15] | inhibition [16] | inhibition [17] | inhibition [18] | inhibition [19] | inhibition [20] |
| --- | --- | --- | --- | --- | --- | --- | --- | --- | --- | --- | --- | --- | --- | --- | --- | --- | --- | --- | --- | --- |
| Brc1c(NC2=NCCN2)ccc2nccnc12 | 103% | 75.6% | -1.17% | 12.5% | 29.2% | 34.9% | 2.56% | -4.03% | 7.31% | 49.5% | -2.59% | 69.9% | 1.24% | 19.2% | 66.9% | -7.41% | – | – | – | – |
| CNC[C@H](O)c1ccc(O)c(O)c1 | 49.1% | 66.7% | 34.2% | 15.9% | 47.1% | -3.14% | -7.99% | -3.44% | 11.1% | 15.8% | – | -8.3% | 6.63% | – | 12.3% | -0.39% | 10.9% | -5.3% | – | – |
| CCc1nn2c(C)cc(C)nc2c1Cc1ccc(-c2nnc(C3CCNCC3)o2)cc1 | 42.9% | 31.1% | 12.5% | -9.55% | -9.36% | 6.13% | -1.79% | -1.59% | 16.6% | 14.8% | 14.4% | 5.87% | -1.19% | -8.38% | 80.3% | – | – | 12.6% | -2.43% | – |
| CC(C)(C(=O)O)c1ccc(C(O)CCCN2CCC(C(O)(c3ccccc3)c3ccccc3)CC2)cc1 (configuration not stated) | -4.3% | -7.6% | -5.98% | 65.8% | 53% | 18.3% | -8.03% | -5.94% | 8.43% | 39.8% | -8.41% | 4.24% | – | – | 39.2% | -4.11% | 28.9% | -8.04% | – | – |
| CCCn1c(=O)c2nc(C34CC5CC(CC3C5)C4)[nH]c2n(CCC)c1=O | 10% | 9.01% | 4.88% | – | -4.54% | 23.9% | 6.77% | -4.72% | 19.3% | 23.4% | -4.94% | 5.98% | 11.3% | – | 39.6% | 25.5% | – | 14.2% | -7.63% | – |
| COC(=O)[C@H]1[C@H]2C[C@H]3c4[nH]c5ccccc5c4CCN3C[C@H]2CC[C@@H]1O | 98.3% | 98.7% | -6.47% | 49.4% | 31% | 11.8% | 8.74% | 1.62% | 98.4% | – | 85.3% | 85.2% | -0.55% | 43.4% | 22.8% | 7.14% | 32.4% | 96% | – | 4.29% |
| COc1cc2nc(N3CCN(C(=O)c4ccco4)CC3)nc(N)c2cc1OC | 42.3% | 97.1% | 1.53% | 49.2% | 37.6% | 7.69% | 1.83% | 8.03% | 27.2% | – | 19.4% | 23.8% | 4.29% | 26.5% | 27.6% | 75.9% | 22.2% | 2.33% | – | 3.19% |

Source: ChEMBL document CHEMBL5442219
